Test results published in ChEMBL document CHEMBL1139192, “Novel bis(indolyl)maleimide pyridinophanes that are potent, selective inhibitors of glycogen synthase kinase-3” (Bioorg Med Chem Lett, 2007).

What was measured:
[1] = molecular target: T1, Serine/threonine-protein kinase D1 (Homo sapiens) (UniProt Q15139); experiment: Residual activity of human PKCmu at 1 uM relative to control
T1 sequence (whole entry): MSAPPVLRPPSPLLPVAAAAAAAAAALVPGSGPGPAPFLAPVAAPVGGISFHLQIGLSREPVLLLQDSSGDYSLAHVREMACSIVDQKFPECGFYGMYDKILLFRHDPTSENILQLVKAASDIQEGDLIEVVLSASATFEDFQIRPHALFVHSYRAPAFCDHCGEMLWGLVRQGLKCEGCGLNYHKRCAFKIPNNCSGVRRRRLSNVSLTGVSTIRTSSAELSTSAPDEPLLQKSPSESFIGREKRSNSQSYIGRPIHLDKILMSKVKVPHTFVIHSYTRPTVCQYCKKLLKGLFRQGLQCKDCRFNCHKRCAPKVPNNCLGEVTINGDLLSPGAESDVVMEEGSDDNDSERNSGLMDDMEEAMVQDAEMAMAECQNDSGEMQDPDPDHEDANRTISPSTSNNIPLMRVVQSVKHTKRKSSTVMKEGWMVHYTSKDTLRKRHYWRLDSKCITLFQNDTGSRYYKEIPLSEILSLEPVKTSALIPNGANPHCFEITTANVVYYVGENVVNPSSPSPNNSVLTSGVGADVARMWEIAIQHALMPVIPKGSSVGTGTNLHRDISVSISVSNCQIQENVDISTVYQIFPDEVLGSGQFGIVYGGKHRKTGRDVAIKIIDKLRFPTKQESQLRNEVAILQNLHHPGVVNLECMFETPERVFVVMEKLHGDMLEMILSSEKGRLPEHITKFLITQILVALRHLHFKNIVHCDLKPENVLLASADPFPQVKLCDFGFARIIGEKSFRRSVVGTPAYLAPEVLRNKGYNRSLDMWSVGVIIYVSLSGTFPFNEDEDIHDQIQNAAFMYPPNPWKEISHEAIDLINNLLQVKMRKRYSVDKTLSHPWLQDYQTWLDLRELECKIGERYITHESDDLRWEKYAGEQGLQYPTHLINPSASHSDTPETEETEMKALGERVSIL

[2] = molecular target: T2, Protein kinase C epsilon type (Homo sapiens) (UniProt Q02156); experiment: Residual activity of human PKCepsilon at 1 uM relative to control
T2 sequence (whole entry): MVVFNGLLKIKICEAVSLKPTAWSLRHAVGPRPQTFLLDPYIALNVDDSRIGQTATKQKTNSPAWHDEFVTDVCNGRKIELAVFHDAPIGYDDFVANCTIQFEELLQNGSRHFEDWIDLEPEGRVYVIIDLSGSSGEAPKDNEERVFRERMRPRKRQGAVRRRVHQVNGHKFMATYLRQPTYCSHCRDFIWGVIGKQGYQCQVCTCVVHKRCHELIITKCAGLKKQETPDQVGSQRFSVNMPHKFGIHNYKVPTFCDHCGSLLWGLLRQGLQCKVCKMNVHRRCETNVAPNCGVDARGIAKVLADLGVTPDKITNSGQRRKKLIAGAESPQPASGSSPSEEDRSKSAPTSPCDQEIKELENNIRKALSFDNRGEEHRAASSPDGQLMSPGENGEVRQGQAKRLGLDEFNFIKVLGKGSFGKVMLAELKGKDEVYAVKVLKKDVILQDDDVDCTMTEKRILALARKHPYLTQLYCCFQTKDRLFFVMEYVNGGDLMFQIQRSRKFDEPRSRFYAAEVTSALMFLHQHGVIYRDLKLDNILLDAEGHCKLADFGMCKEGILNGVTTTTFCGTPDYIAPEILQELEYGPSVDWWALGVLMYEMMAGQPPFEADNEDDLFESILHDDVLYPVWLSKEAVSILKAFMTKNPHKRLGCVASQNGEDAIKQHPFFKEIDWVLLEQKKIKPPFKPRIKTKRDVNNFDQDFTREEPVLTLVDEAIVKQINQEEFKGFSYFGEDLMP

[3] = molecular target: T3, Serine/threonine-protein kinase D2 (Homo sapiens) (UniProt Q9BZL6); experiment: Inhibition of human PKD2 at 1 uM relative to control; values are per cent of control
T3 sequence (whole entry): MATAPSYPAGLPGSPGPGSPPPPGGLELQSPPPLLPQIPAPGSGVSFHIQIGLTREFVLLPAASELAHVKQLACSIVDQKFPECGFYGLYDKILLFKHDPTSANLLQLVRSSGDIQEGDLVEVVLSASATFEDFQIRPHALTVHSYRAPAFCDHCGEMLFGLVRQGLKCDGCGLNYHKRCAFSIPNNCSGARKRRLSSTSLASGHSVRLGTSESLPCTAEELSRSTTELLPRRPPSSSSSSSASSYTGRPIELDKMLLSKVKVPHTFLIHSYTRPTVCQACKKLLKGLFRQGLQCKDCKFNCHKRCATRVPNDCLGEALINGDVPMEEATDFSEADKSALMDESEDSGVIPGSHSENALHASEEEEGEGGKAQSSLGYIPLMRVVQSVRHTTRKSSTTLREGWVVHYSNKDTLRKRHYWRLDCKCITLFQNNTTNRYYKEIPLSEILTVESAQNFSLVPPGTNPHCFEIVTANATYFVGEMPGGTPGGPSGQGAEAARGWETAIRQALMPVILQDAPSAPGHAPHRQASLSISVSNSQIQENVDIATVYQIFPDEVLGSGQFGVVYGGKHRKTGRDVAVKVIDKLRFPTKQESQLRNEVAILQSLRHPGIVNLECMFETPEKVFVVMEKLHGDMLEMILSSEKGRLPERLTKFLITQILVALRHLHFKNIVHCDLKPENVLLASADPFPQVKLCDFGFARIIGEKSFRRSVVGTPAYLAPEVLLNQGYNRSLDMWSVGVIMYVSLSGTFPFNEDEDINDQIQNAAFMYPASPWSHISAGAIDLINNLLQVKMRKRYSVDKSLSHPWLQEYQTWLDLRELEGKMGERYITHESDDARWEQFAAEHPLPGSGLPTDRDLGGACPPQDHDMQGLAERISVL

[4] = molecular target: Tyrosine-protein kinase Yes (Homo sapiens) (UniProt P07947); experiment: Inhibition of human Yes kinase at 1 uM relative to control; values are per cent of control
[5] = organism: Homo sapiens; experiment: Inhibition of human CDK2/Cyclin E at 1 uM relative to control; values are per cent of control
[6] = organism: Homo sapiens; experiment: Inhibition of human CDK7/Cyclin H at 1 uM relative to control; values are per cent of control

Chain of Tyrosine-protein kinase Yes (Homo sapiens) (P07947 2-543 limits assumed): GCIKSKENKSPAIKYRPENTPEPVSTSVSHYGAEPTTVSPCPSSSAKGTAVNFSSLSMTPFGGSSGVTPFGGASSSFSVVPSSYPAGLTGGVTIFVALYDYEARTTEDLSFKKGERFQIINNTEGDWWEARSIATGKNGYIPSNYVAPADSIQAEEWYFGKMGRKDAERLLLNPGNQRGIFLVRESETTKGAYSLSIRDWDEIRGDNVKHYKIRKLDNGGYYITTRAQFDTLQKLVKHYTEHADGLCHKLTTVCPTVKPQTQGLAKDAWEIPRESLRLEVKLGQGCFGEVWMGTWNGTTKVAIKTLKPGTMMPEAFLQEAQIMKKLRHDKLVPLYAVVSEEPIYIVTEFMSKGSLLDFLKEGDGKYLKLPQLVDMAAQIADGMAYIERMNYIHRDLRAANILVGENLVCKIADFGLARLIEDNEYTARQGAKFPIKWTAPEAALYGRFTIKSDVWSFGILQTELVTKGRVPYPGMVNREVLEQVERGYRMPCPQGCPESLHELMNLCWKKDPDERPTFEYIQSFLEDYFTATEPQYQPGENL

Row | SMILES | residual activity [1] [%] | residual activity [2] [%] | residual activity [3] [%] | residual activity [4] [%] | residual activity [5] [%] | residual activity [6] [%]
1 | CN(C)c1cc2cc(n1)CCCn1cc(c3ccccc31)C1=C(C(=O)NC1=O)c1cn(c3ccccc13)CCC2 | 118 | 83 | 97 | 79 | 84 | 108
2 | O=C1NC(=O)C2=C1c1cn(c3ccccc13)CCCc1cc(nc(N3CCCC3)c1)CCCn1cc2c2ccccc21 | 118 | 93 | 103 | 58 | 88 | 107
3 | O=C1NC(=O)C2=C1c1cn(c3ccccc13)CCCc1ccc(c(N3CCCC3)n1)CCCn1cc2c2ccccc21 | 113 | 97 | 115 | 43 | 88 | 111
4 | CN(C)c1nc2ccc1CCCn1cc(c3ccccc31)C1=C(C(=O)NC1=O)c1cn(c3ccccc13)CC2 | 110 | 72 | 100 | 96 | 54 | 89
